The record followed here is patent US9604982B2, “P2X7 modulators” (Janssen Pharmaceutica NV, priority 2013, dated 2017).

This experiment addresses P2X7 (Homo sapiens (Human), UniProt Q99572). Put plainly: P2X7 antagonism in human peripheral blood mononuclear cells (PBMCs), IL-1β release after LPS + Bz-ATP (ELISA). Format: cell-based. As to conditions: 0.5 mM Bz-ATP; for remaining activity at 10 µM: P2X7, Table 2, 10 μM compound, read-out: PBMC 10 μM (% control); for PBMC 10 μM (% control): Table 3 (additional runs), 10 μM compound. The protocol:
Human blood was collected using a blood donor program. […] Cells were incubated for an additional 1.5 hours. […] Data are analyzed and graphed on Graphpad Prism 5. […] The IC50 for each compound is then uploaded into 3DX.

Chain of P2X7 (Q99572 whole entry): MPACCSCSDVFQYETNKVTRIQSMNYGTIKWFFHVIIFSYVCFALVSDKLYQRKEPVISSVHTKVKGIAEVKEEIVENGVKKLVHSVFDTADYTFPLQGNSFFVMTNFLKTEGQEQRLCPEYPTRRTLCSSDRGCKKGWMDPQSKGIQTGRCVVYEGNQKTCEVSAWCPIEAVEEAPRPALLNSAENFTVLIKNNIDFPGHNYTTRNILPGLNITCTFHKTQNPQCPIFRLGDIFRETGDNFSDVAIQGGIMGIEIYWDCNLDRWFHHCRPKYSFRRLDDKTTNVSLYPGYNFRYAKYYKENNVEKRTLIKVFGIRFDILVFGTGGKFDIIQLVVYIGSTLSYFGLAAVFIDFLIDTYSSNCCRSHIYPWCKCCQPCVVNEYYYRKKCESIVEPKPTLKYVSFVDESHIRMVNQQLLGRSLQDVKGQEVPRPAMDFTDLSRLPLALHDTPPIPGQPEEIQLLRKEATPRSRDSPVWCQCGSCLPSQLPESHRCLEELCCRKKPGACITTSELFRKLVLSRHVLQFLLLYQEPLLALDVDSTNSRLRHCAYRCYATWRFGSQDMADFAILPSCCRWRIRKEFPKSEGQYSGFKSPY

In the case of `Cc1nc2c(c(-c3ccn[nH]3)n1)C[C@@H](C)N(C(=O)c1cccc(C(F)(F)F)c1Cl)C2` (single isomer, unassigned) [Example 58, (6R*)-7-{[2-Chloro-3-(trifluoromethyl)phenyl]carbonyl}-2,6-dimethyl-4-(1H-pyrazol-5-yl)-5,6,7,8-tetrahydropyrido[3,4-d]pyrimidine], the remaining activity at 10 µM stood at 5% and the “PBMC 10 μM (% control)” value is reported as 5.0 % control.

`Cc1nc2c(c(-c3ccn[nH]3)n1)C[C@H](C)N(C(=O)c1cccc(C(F)(F)F)c1Cl)C2` (single isomer, unassigned) [Example 59, (6S*)-7-{[2-Chloro-3-(trifluoromethyl)phenyl]carbonyl}-2,6-dimethyl-4-(1H-pyrazol-5-yl)-5,6,7,8-tetrahydropyrido[3,4-d]pyrimidine]: the remaining activity at 10 µM was found to be 2.8% and the “PBMC 10 μM (% control)” value came to 2.8 % control.

As for `Cc1nc2c(c(-c3ccn[nH]3)n1)C[C@H](C)N(C(=O)c1ccc(F)c(C(F)(F)F)c1Cl)C2` (single isomer, unassigned) [Example 65, (S*)-(2-chloro-4-fluoro-3-(trifluoromethyl)phenyl)(2,6-dimethyl-4-(1H-pyrazol-5-yl)-5,6-dihydropyrido[3,4-d]pyrimidin-7(8H)-yl)methanone], the remaining activity at 10 µM came to 3.9% and the “PBMC 10 μM (% control)” value is given as 3.9 % control.

As to `Cc1nc2c(c(-c3ccn[nH]3)n1)C[C@@H](C)N(C(=O)c1ccc(F)c(C(F)(F)F)c1Cl)C2` (single isomer, unassigned) [Example 66, (R*)-(2-chloro-4-fluoro-3-(trifluoromethyl)phenyl)(2,6-dimethyl-4-(1H-pyrazol-5-yl)-5,6-dihydropyrido[3,4-d]pyrimidin-7(8H)-yl)methanone], the remaining activity at 10 µM was -6.1% and the “PBMC 10 μM (% control)” value is −6.1 % control.

In the case of `Cc1nc2c(c(-c3ccn[nH]3)n1)C[C@@H](C)N(C(=O)c1cccc(Cl)c1Cl)C2` (single isomer, unassigned) [Example 68, (R*)-(2,3-dichlorophenyl)(2,6-dimethyl-4-(1H-pyrazol-5-yl)-5,6-dihydropyrido[3,4-d]pyrimidin-7(8H)-yl)methanone], the remaining activity at 10 µM was -0.5% and the “PBMC 10 μM (% control)” value is listed as −0.5 % control.

Regarding `Cc1nc2c(c(-c3ccn[nH]3)n1)C[C@H](C)N(C(=O)c1cccc(Cl)c1Cl)C2` (single isomer, unassigned) [Example 69, (S*)-(2,3-dichlorophenyl)(2,6-dimethyl-4-(1H-pyrazol-5-yl)-5,6-dihydropyrido[3,4-d]pyrimidin-7(8H)-yl)methanone], the remaining activity at 10 µM was -6.2% and the “PBMC 10 μM (% control)” value is reported as −6.2 % control.

Regarding `Cc1nc2c(c(-c3ccn[nH]3)n1)C[C@@H](C)N(C(=O)c1cccc(C(F)(F)F)c1F)C2` (single isomer, unassigned) [Example 75, (R*)-(2,6-dimethyl-4-(1H-pyrazol-5-yl)-5,6-dihydropyrido[3,4-d]pyrimidin-7(8H)-yl)(2-fluoro-3-(trifluoromethyl)phenyl)methanone], the remaining activity at 10 µM stood at 2.4% and the “PBMC 10 μM (% control)” value is recorded as 2.4 % control.

Take `Cc1nc2c(c(-c3ccn[nH]3)n1)C[C@H](C)N(C(=O)c1cccc(C(F)(F)F)c1F)C2` (single isomer, unassigned) [Example 76, (S*)-(2,6-dimethyl-4-(1H-pyrazol-5-yl)-5,6-dihydropyrido[3,4-d]pyrimidin-7(8H)-yl)(2-fluoro-3-(trifluoromethyl)phenyl)methanone]: the remaining activity at 10 µM worked out at 14.3%.

With `Cc1nc2c(c(-c3ccn[nH]3)n1)C[C@@H](C)N(C(=O)c1cccc(C(F)(F)F)c1C)C2` (single isomer, unassigned) [Example 78, (R*)-(2,6-dimethyl-4-(1H-pyrazol-5-yl)-5,6-dihydropyrido[3,4-d]pyrimidin-7(8H)-yl)(2-methyl-3-(trifluoromethyl)phenyl)methanone], the remaining activity at 10 µM was 1.4% and the “PBMC 10 μM (% control)” value came out at 1.4 % control.

For `Cc1nc2c(c(-c3ccn[nH]3)n1)C[C@H](C)N(C(=O)c1cccc(C(F)(F)F)c1C)C2` (single isomer, unassigned) [Example 79, (S*)-(2,6-dimethyl-4-(1H-pyrazol-5-yl)-5,6-dihydropyrido[3,4-d]pyrimidin-7(8H)-yl)(2-methyl-3-(trifluoromethyl)phenyl)methanone], the remaining activity at 10 µM came to 2.6% and the “PBMC 10 μM (% control)” value is 2.6 % control.

Consider `Cc1nc2c(c(-c3ccn[nH]3)n1)C[C@@H](C)N(C(=O)c1ccc(F)c(Cl)c1Cl)C2` (single isomer, unassigned) [Example 81, (R*)-(2,3-dichloro-4-fluorophenyl)(2,6-dimethyl-4-(1H-pyrazol-5-yl)-5,6-dihydropyrido[3,4-d]pyrimidin-7(8H)-yl)methanone], for which the remaining activity at 10 µM was determined as 21% and the “PBMC 10 μM (% control)” value is 21.0 % control.

Take `Cc1nc2c(c(-c3ccn[nH]3)n1)C[C@H](C)N(C(=O)c1ccc(F)c(Cl)c1Cl)C2` (single isomer, unassigned) [Example 82, (S*)-(2,3-dichloro-4-fluorophenyl)(2,6-dimethyl-4-(1H-pyrazol-5-yl)-5,6-dihydropyrido[3,4-d]pyrimidin-7(8H)-yl)methanone]: the remaining activity at 10 µM was -1% and the “PBMC 10 μM (% control)” value is on record as −1.0 % control.

Turning to `Cc1nc2c(c(-c3ccn[nH]3)n1)C[C@@H](C)N(C(=O)c1ccc(Cl)cc1Cl)C2` (single isomer, unassigned) [Example 84, (R*)-(2,4-dichlorophenyl)(2,6-dimethyl-4-(1H-pyrazol-5-yl)-5,6-dihydropyrido[3,4-d]pyrimidin-7(8H)-yl)methanone], the remaining activity at 10 µM was determined as 7.5% and the “PBMC 10 μM (% control)” value is recorded as 7.5 % control.

Consider `Cc1nc2c(c(-c3ccn[nH]3)n1)C[C@H](C)N(C(=O)c1ccc(Cl)cc1Cl)C2` (single isomer, unassigned) [Example 85, (S*)-(2,4-dichlorophenyl)(2,6-dimethyl-4-(1H-pyrazol-5-yl)-5,6-dihydropyrido[3,4-d]pyrimidin-7(8H)-yl)methanone], for which the remaining activity at 10 µM was -0.8% and the “PBMC 10 μM (% control)” value is given as −0.8 % control.

Consider `Cc1nc2c(c(-c3ccn[nH]3)n1)C[C@@H](C)N(C(=O)c1ccc(Cl)cc1F)C2` (single isomer, unassigned) [Example 88, (R*)-(4-chloro-2-fluorophenyl)(2,6-dimethyl-4-(1H-pyrazol-5-yl)-5,6-dihydropyrido[3,4-d]pyrimidin-7(8H)-yl)methanone], for which the remaining activity at 10 µM amounted to 49.4%.

Consider `Cc1nc2c(c(-c3ccn[nH]3)n1)C[C@@H](C)N(C(=O)c1ccc(F)cc1Cl)C2` (single isomer, unassigned) [Example 91, (R*)-(2-chloro-4-fluorophenyl)(2,6-dimethyl-4-(1H-pyrazol-5-yl)-5,6-dihydropyrido[3,4-d]pyrimidin-7(8H)-yl)methanone], for which the remaining activity at 10 µM is -8.8% and the “PBMC 10 μM (% control)” value was −8.8 % control.

`Cc1nc2c(c(-c3ccn[nH]3)n1)C[C@H](C)N(C(=O)c1ccc(F)cc1Cl)C2` (single isomer, unassigned) [Example 92, (S*)-(2-chloro-4-fluorophenyl)(2,6-dimethyl-4-(1H-pyrazol-5-yl)-5,6-dihydropyrido[3,4-d]pyrimidin-7(8H)-yl)methanone]: the remaining activity at 10 µM amounted to 9.4% and the “PBMC 10 μM (% control)” value came to 9.4 % control.

Turning to `Cc1nc2c(c(-c3ccn[nH]3)n1)C[C@@H](C)N(C(=O)c1ccc(F)cc1F)C2` (single isomer, unassigned) [Example 94, (R*)-(2,4-difluorophenyl)(2,6-dimethyl-4-(1H-pyrazol-5-yl)-5,6-dihydropyrido[3,4-d]pyrimidin-7(8H)-yl)methanone], the remaining activity at 10 µM was found to be 71.8%.

`Cc1nc2c(c(-c3ccn[nH]3)n1)C[C@H](C)N(C(=O)c1ccc(F)cc1F)C2` (single isomer, unassigned) [Example 95, (S*)-(2,4-difluorophenyl)(2,6-dimethyl-4-(1H-pyrazol-5-yl)-5,6-dihydropyrido[3,4-d]pyrimidin-7(8H)-yl)methanone]: the remaining activity at 10 µM was -19.2%.

In the case of `CCc1nc2c(c(-c3ccn[nH]3)n1)C[C@@H](C)N(C(=O)c1cccc(C(F)(F)F)c1Cl)C2` (single isomer, unassigned) [Example 99, (R*)-(2-chloro-3-(trifluoromethyl)phenyl)(2-ethyl-6-methyl-4-(1H-pyrazol-5-yl)-5,6-dihydropyrido[3,4-d]pyrimidin-7(8H)-yl)methanone], the remaining activity at 10 µM was determined as 16.4%.

Take `CCc1nc2c(c(-c3ccn[nH]3)n1)C[C@H](C)N(C(=O)c1cccc(C(F)(F)F)c1Cl)C2` (single isomer, unassigned) [Example 100, (S*)-(2-chloro-3-(trifluoromethyl)phenyl)(2-ethyl-6-methyl-4-(1H-pyrazol-5-yl)-5,6-dihydropyrido[3,4-d]pyrimidin-7(8H)-yl)methanone]: the remaining activity at 10 µM turned out to be 4% and the “PBMC 10 μM (% control)” value turned out to be 4.0 % control.

As for `CC(C)c1nc2c(c(-c3ccn[nH]3)n1)C[C@@H](C)N(C(=O)c1cccc(C(F)(F)F)c1Cl)C2` (single isomer, unassigned) [Example 102, (R*)-(2-chloro-3-(trifluoromethyl)phenyl)(2-isopropyl-6-methyl-4-(1H-pyrazol-5-yl)-5,6-dihydropyrido[3,4-d]pyrimidin-7(8H)-yl)methanone], the remaining activity at 10 µM was found to be 11.7%.

For the compound `CC(C)c1nc2c(c(-c3ccn[nH]3)n1)C[C@H](C)N(C(=O)c1cccc(C(F)(F)F)c1Cl)C2` (single isomer, unassigned) [Example 103, (S*)-(2-chloro-3-(trifluoromethyl)phenyl)(2-isopropyl-6-methyl-4-(1H-pyrazol-5-yl)-5,6-dihydropyrido[3,4-d]pyrimidin-7(8H)-yl)methanone], the remaining activity at 10 µM was 6.3% and the “PBMC 10 μM (% control)” value amounted to 6.3 % control.
